# According to patent publication US20260151446A1, “IMPROVED ORAL BIOAVAILABILITY FORMULATION FOR MITRAGYNA SPECIOSA (KRATOM)” (priority 2022, published 2026):
# Tests used:
# [1] = single oral dose of 5 mg/kg mitragynine equivalent; female beagle dogs; cited from earlier work
# [2] = rats; delivered as a purified aqueous solution; cited from earlier work
# [3] = Proof of concept pharmacokinetic / bioavailability study, plasma mitragynine after single dose; assay type: in vivo, Sprague Dawley rats; settings: male rats
# Protocol: Once the capsule formulation was finalized, a proof of concept and safety study was carried out in Sprague Dawley rats. Male and female rats (250±25 g) were purchased from Envigo (Indianapolis, IN, USA) with indwelling jugular vein cannulas and acclimated ≥72 h in a temperature- and humidity-controlled vivarium on a 12 h light/dark cycle. Study protocols were approved by the Institutional Animal Care and Use Committee (IACUC) at the University of Florida, which is fully accredited by the Association for Assessment and Accreditation of Laboratory Animal Care International (AAALAC) and were written in accordance with the National Institutes of Health (NIH) Guide for the Care and Use of Laboratory Animals.
# Rats were fasted for 10 h prior to dosing and an additional 2 h post-dose. Rats were dosed with one size 9 gelatin capsule with fill weights of 19.5±0.5 mg, (about 5.1 mg kratom or 2.3 mg mitragynine). […] Rats were connected to an automatic blood collection system (Bioanalytical Systems Inc., West Lafayette, IN, USA) and blood samples were taken at pre-dose, 0.08, 0.17, 0.25, 0.5, 0.75, 1, 2, 4, 6, 8, 12, 18, and 24 h. At the completion of the study, plasma samples were separated by centrifugation at 850×g for 10 min at 4° C. and stored at −20° C. until analysis.
# To process plasma (rat or dog) samples for analysis, 20 μL aliquots of each sample were taken. To prepare calibration standards (CS), 2.0 μL of mix stock were added to 18 μL of blank plasma. This generated eight standards of 2.5, 5, 25, 50, 100, 150, 250, and 500 ng/mL, in the respective plasma. The same process was used to generate the lower limit of quantification (LLOQ) (2.5 ng/mL), low quality control (LQC) (6.25 ng/mL), medium quality control MQC (200 ng/mL) and high quality control (HQC) (400 ng/mL). After spiking, the CS and QC samples were vortex mixed for 5 min at 650 rpm. Analytes were precipitated using 100 μL methanol acidified with 0.05% formic acid containing 50 ng/mL IS in a 1:4 ratio. The samples were then vortex mixed for 5 min at 650 rpm before being transferred to a 96-well Millipore Solvinert 0.45 μm filter plate (Burlington, MA, USA) and centrifuged at 850×g for 2 min at 4° C.
# A previously reported UPLC-MS/MS method for the quantification of eleven kratom alkaloids was used to analyze all samples^13. Briefly, the mobile phase composed of aqueous ammonium acetate buffer (2.5 mM, pH 3.5, (A)) and acetonitrile (B). The gradient started at 90% A and 10% B, and A was decreased to 75% by 3.5 min and then to 60% by 10 min. […] An Acquity UPLC® BEH C18 column (1.7 μm, 2.1×100 mm) with a VanGuard precolumn of the same chemistry was used for separation (Waters, Milford, MA, USA). The UPLC-MS/MS was a Waters™ Acquity Class-I chromatograph coupled with a Xevo TQ-S Micro triple quadrupole mass spectrometer (Waters, Milford, MA, USA).
# The TargetLynx™ application of MassLynx™ 4.2 was used for data processing and quantification of the UPLC-MS/MS data (Waters, Milford, MA, USA). Phoenix Version 6.4 (Certara, Princeton, NJ, USA) was used for the non-compartmental analysis using a linear log interpolation. Graphpad Prism Version 8 (GraphPad Software, San Diego, CA, USA) was used to plot the concentration-time profiles for each dataset. R Studio version 1.4.1717 was used for statistical analysis (R Foundation for Statistical Computing, Vienna, Austria).
# [4] = mitragynine in plasma, oral 20 mg/kg
smiles,measurement,setting,value
"CC[C@@H]1CN2CCc3c([nH]c4cccc(OC)c34)[C@@H]2C[C@@H]1/C(=C\OC)C(=O)OC [Mitragynine, mitragynine]",tolerability,[1],well tolerated
same,bioavailability of mitragynine,[2],17%
same,Tmax,"[3]; Sprague Dawley, rat, in vivo, mitragynine in plasma, oral 20 mg/kg",24 ± 6 min
same,bioavailability,"[3]; Sprague Dawley, rat, in vivo, mitragynine, oral 20 mg/kg",37%
same,AUC/Dose,"[3]; mitragynine in plasma, IV […]",335 ± 16.5 µg·h/L/mg/kg
same,AUC/Dose,[3]; [4],122.4 ± 13.0 µg·h/L/mg/kg
same,Cmax/Dose,[3]; [4],22.7 ± 4.9 µg/L/mg/kg
